From patent US20220213092A1, “BICYCLIC PYRAZOLE BRUTON'S TYROSINE KINASE INHIBITORS” (AbbVie Inc., priority 2020, published 2022)

How the values were obtained:
CYP3A4 = CYP3A4 induction assay (CYP 3A4 mRNA by qPCR in cryopreserved human hepatocytes); format: in vitro ADME; conditions: 10 μM compound; for CYP3A4 Ind. (%): value in brackets: induction relative to prototypical inducer rifampicin = 100%
Protocol: CYP induction was evaluated in vitro by determining the expression levels of CYP 3A4 mRNA using the qPCR (quantitative polymerase chain reaction) assay. On day one, cryopreserved human hepatocytes were thawed in prewarmed (37° C.) thawing medium (cryopreserved hepatocyte recovery medium, Gibco™ CM 7000; Thermo Fisher Scientific), centrifuged (1000 g for 10 minutes) and resuspended in plating medium (Gibco™ CM3000—Williams Medium E supplemented with hepatocytes plating supplement pak-serum containing; Thermo Fisher Scientific). Cells were counted by trypan blue exclusion using a hemocytometer and adjusted to a cell density of […]. Thereafter, […] of cell suspension was aliquoted per well in a 96-well plate, resulting in 60,000 cells/well. Plates were shaken in the north-south and east-west direction during plating. Plated cells were incubated at 37° C./5% CO2 in a humidified cell culture incubator for 4-6 hours. During this time, incubation medium (Gibco™ CM4000, cell maintenance supplement pack; Thermo Fisher Scientific) was mixed with Gibco™ Geltrex™ (Thermo Fischer Scientific) at the appropriate Geltrex™ protein concentration. Following recovery, medium was removed from cells and replaced with freshly prepared incubation medium. Cells were incubated overnight in a cell culture incubator (37° C./5% CO2).
The next day the incubation medium was prepared by combining the hepatocyte maintenance supplement pack with Williams medium E. The medium was warmed to 37° C. 1000× dimethyl sulfoxide compound stocks were prepared to the desired concentrations. 10 mM compound stocks in dimethyl sulfoxide were diluted (1 μL to 1 mL CM4000; final concentration=10 μM). Overlay medium was aspirated and […] dose solution added to the desired labeled 96 well plate. Cells were returned to the humidified incubator overnight (37° C./5% CO2).
On day 3, incubation medium was warmed to 37° C., and the same process for compound preparation repeated as in day 2, i.e. 1000× dimethyl sulfoxide compound stocks were prepared to the desired concentration, diluted (1:1000) in warm incubation medium, and this freshly prepared medium was used to replace treatment medium. Cells were returned to the humidified incubator (37° C./5% CO2) overnight.
On day 4, RNA isolation was performed. Prior to RNA isolation, cell viability was assessed using presto blue reagent. 10× dilution of PrestoBlue™ reagent (Thermo Fisher Scientific) was prepared by mixing 1.4 mL PrestoBlue™ with 12.6 mL incubation medium. Medium was aspirated from cells, and 100 μL of cell viability medium (10× dilution of PrestoBlue™ reagent) added and incubated for 17 minutes. Cell viability was determined by measuring absorbance using a microplate reader (Spark® 10M Tecan Life Sciences). After this measurement, media was aspirated using a multichannel aspirator and a glass pipet to completely aspirate from each well. Plates were stored or immediately used for mRNA isolation. All surfaces were cleaned using RNase away. 2× Lysis buffer was well mixed after incubation at ambient temperature. Fresh lysis buffer was prepared by mixing 0.125 μL of 0.5 mM DTT with 4.875 μL 2× lysis buffer. 1× lysis buffer containing DTT was then prepared by adding 5 μL dilution buffer to the 2× lysis buffer and mixing thoroughly. Thereafter, cell lysates were prepared by adding 1× lysis buffer to each sample well (96-well plate). Samples were incubated for 3-6 minutes at ambient temperature while shaking (350-400 rpm) to lyse the cells. Cells were scrapped with tips, and cell lysate (80 μL) was transferred to each well of the mRNA Catcher PLUS™ plate (Thermo Fisher Scientific). mRNA Catcher PLUS™ plate containing samples was covered with adhesive plastic film plate cover and incubated at ambient temperature for 45-60 minutes for RNA hybridization.
After hybridization, lysate was aspirated from the cells. […]

EGFR = EGFR (Homo sapiens, UniProt P00533); assay: Other kinase MSA: EGFR; format: biochemical; conditions: 5 μM ATP, CSKtide substrate, 3 hours; read-out: IC50, Enzyme EGFR
Protocol: (§1) Kinase activity, unless otherwise indicated, was measured in vitro using an electrophoretic mobility shift assay (MSA). The phosphorylation of a peptide substrate by BTK and other kinases was measured. The kinase reactions were assembled in a total volume of 25 μL per well in 384 well plates. The following was added to each well: compound buffer (or control); enzyme buffer; and substrate buffer, as further described below.
(§2) Enzyme and compound/inhibitor were optionally pre-incubated. To each well was added: 8 μL of 2.5×ATP and substrate in 1× Master Buffer (1× Master Buffer as described above). The plate was incubated at room temperature for 3 hours. […] OG488 was Oregon Green dye, which was conjugated to the peptide substrate. […] The kinase activity for the kinases in Table 3 were measured at 3 hours incubation time, except that in the case of MAP2K1 and MAP2K2 assay, pre-activation of ERK was done for 30 min with 6 μM of ATP, and then the detection of activated ERK in the presence of compounds was done after 60 minutes of incubation.
(§3) The terminated reactions were analyzed using a 12 channel LABCHIP® 3000 microfluidic detection instrument (available from Caliper Life Sciences, Waltham, Mass.). […] Change in the relative fluorescence intensity of the substrate and product peaks was the parameter measured, reflecting enzyme activity. […]

BLK = BLK (Homo sapiens, UniProt P51451); assay: Other kinase MSA: BLK; format: biochemical
Protocol: as §1, §2, §3

Sequence of EGFR (P00533 25-1210, species assumed): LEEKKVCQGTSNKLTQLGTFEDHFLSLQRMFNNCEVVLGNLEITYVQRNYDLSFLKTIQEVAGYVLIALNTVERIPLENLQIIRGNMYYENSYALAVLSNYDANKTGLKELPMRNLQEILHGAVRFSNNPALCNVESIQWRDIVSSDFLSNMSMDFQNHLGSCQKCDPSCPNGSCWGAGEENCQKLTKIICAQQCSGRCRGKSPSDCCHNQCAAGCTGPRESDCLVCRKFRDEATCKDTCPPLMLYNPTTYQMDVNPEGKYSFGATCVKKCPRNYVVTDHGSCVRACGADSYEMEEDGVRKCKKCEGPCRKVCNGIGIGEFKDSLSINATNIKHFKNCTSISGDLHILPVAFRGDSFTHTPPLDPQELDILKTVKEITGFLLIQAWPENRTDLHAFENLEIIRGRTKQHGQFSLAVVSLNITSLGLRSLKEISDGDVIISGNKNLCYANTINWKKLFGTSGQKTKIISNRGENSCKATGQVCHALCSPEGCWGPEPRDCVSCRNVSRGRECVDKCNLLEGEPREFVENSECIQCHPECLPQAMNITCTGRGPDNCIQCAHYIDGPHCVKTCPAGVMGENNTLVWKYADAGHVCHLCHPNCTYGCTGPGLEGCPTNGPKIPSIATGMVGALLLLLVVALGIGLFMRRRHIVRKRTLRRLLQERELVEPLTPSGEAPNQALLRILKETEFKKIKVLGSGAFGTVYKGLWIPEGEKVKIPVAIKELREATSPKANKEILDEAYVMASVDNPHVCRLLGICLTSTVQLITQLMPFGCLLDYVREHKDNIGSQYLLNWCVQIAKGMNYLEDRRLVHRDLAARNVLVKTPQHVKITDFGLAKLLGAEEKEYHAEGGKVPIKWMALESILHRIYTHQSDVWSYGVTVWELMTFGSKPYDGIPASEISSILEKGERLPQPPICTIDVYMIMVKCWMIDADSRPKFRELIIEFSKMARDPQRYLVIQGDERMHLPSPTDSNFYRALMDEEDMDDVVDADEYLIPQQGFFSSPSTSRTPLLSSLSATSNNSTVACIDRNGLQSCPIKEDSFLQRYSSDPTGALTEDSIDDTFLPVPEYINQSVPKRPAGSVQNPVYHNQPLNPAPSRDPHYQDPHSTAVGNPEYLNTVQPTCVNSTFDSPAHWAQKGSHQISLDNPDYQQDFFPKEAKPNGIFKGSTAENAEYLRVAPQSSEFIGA
Sequence of BLK (P51451 whole entry, species assumed): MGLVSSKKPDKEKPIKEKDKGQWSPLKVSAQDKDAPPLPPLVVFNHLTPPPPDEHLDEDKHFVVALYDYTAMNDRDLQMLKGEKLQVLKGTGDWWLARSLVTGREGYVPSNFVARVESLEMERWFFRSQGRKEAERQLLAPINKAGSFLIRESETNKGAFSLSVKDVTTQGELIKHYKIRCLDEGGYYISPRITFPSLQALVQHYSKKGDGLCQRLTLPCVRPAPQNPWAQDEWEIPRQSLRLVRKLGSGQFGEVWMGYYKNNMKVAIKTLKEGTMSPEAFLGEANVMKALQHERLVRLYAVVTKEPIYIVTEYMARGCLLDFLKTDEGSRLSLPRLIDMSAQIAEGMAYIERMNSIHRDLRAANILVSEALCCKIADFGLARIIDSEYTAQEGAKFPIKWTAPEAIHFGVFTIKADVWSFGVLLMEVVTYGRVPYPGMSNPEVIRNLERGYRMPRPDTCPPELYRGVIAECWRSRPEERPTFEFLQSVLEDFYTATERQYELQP

C=CC(=O)N1CCC([C@@H]2CCNc3c(C(N)=O)c(-c4ccc(Oc5ccccc5)cc4)nn32)CC1 [Compound A, reference compound]
CYP3A4 Ind. (%) (CYP3A4): 125%

C=CC(=O)N1CCN([C@@H]2CCNc3c2nn(-c2ccc(Oc4ccccc4)cc2)c3C(N)=O)CC1 [Example 6, (7R)-2-(4-phenoxyphenyl)-7-[4-(prop-2-enoyl)piperazin-1-yl]-4,5,6,7-tetrahydro-2H-pyrazolo[4,3-b]pyridine-3-carboxamide]
IC50 (EGFR): 844 nM
CYP3A4 Ind. fold (CYP3A4; CYP3A4 mRNA fold change vs vehicle): 0.9 fold
CYP3A4 Ind. (%) (CYP3A4): −1.3%
IC50 (BLK): 137 nM
